Assay results reported in paper PMC11018795, “The regulatory relationship between NAMPT and PD-L1 in cancer and identification of a dual-targeting inhibitor” (EMBO Molecular Medicine, 2024).
Several values for one entry are separate records, joined by “and”; a condition that tells them apart may be missing. Identical values can stand only once.

How the values were obtained:
NAMPT = NAMPT (Homo sapiens, UniProt P43490); assay: In vitro NAMPT activity assay (Abcam kit); format: biochemical; parameters: purchased Abcam ab221819
NAMPT, sequence (P43490 whole entry, species assumed): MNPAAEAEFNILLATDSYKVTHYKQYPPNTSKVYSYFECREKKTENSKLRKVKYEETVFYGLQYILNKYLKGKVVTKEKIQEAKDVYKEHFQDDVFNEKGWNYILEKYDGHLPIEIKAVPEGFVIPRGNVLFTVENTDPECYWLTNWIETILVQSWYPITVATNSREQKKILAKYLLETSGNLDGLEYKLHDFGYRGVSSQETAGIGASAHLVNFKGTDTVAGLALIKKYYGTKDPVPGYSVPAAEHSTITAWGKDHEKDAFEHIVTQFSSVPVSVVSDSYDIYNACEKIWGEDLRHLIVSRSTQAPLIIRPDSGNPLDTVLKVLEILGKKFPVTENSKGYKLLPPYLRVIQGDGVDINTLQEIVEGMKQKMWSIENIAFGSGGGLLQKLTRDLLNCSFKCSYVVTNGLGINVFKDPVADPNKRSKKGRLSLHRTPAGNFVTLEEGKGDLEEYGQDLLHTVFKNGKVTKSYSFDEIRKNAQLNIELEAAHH

A2780 cells = assay: Cell cycle analysis, A2780; format: cell-based, human
Text: Supplement 44321_2024_51_MOESM5_ESM.zip/Fig4-D.xlsx, sheet "Sheet1" | column: G0/G1; S; G2/M

PC9 cells = assay: MTT assay 48 h, PC9; format: cell-based, human
Procedure: Cells (5 × 10^3/well) were seeded into a 96-well plate and cultured at 37 °C in a 5% CO2 incubator. […] At the final time point, 10 μl MTT solution (5 mg/ml, Sigma, Burlington, MA, USA) was added to each well and incubated for an additional 4 h at 37 °C in a 5% CO2 incubator. Then,100 μl of DMSO was added to each well and mixed thoroughly. Optical density was measured at 492 nm using a microplate reader (Molecular Devices, San Jose, CA, USA).

[1] = test system: LLC OE N/P cells co-cultured with T cells; assay: T cell-mediated tumor cell killing assay, LLC OE N/P; format: cell-based; details: Mus musculus, 100 nM, read-out: inhibition rate (T cell-mediated killing)
Procedure: To acquire activated T cells, human peripheral blood mononuclear cells (PBMC; LTS1077, Yanjin Biological) were cultured in CTSTM AIIM VTM SFM (A3021002; Gibco) with ImmunoCult Human CD3/CD28/CD2 T-cell activator (25 µL/mL; […] Technologies, Cat#10970) for 48 h according to the manufacturer’s protocol. The experiments were performed using mouse anti-CD3 antibody (1 µg/mL; Thermo Scientific, 16-0032-82) and anti-CD28 antibody(5 µg/mL; Thermo Scientific, 16-0281-82). Cancer cells were allowed to adhere to the plates overnight and then incubated for 48 h with activated T cells in the presence or absence of DX ([…]). Different proportions of cancer cells and activated T cells were utilized according to the purpose of each experiment. The T-cell proliferation assay was 1:3; the T-cell killing assay was 1:10; T cells and cell debris were removed by PBS washing, and the living cancer cells were then quantified by a spectrometer at OD (570 nm) followed by crystal violet staining. page 12: Fig 3: […] expression patterns. […] Data was obtained from the TCGA database. (B) T cell-mediated tumor cell killing assay. T cells were co-cultured with LLC Vector, […] CQ-85, or BMS202. […] stained by crystal violet. The relative added value of activated T cells is shown below. Data are presented as mean ± SEM; *P < 0.05, **P < 0.01, ***P < 0.001, compared with control. n.s., not significant. […]

[2] = test system: A2780, HCT-116, LLC, CT-26 cells co-cultured with T cells; assay: T-cell-mediated tumor cell killing assay, A2780, HCT-116, LLC, CT-26; format: cell-based, human, mouse; details: 72 h co-culture
Procedure: To acquire activated T cells, human peripheral blood mononuclear cells (PBMC; LTS1077, Yanjin Biological) were cultured in CTSTM AIIM VTM SFM (A3021002; Gibco) with ImmunoCult Human CD3/CD28/CD2 T-cell activator (25 µL/mL; […] Technologies, Cat#10970) for 48 h according to the manufacturer’s protocol. The experiments were performed using mouse anti-CD3 antibody (1 µg/mL; Thermo Scientific, 16-0032-82) and anti-CD28 antibody(5 µg/mL; Thermo Scientific, 16-0281-82). […] Different proportions of cancer cells and activated T cells were utilized according to the purpose of each experiment. The T-cell proliferation assay was 1:3; the T-cell killing assay was 1:10; T cells and cell debris were removed by PBS washing, and the living cancer cells were then quantified by a spectrometer at OD (570 nm) followed by crystal violet staining.

CCN(CC)CCCOc1cccc(-c2cccc3c2CCN3C(=O)c2ncc(CNC(=NC#N)Nc3ccncc3)s2)c1 [LZFPN-90] was tested, and the IC50 (NAMPT) was 28 nM, the “mode of NAMPT inhibition” value (NAMPT; concluded from NMN reversal of NAD+ reduction) was “NAMPT competitive inhibitor” and the “Cell cycle G0/G1” value (A2780 cells; LZ90 20) was 36.54 and 37.05 and 37.41. For the same molecule, the “Cell cycle G2/M” value (A2780 cells; LZ90 20) was 35.48 and 38.97 and 35.02, the “Cell cycle S” value (A2780 cells; LZ90 20) was 24.02 and 27.3 and 26.67 and the “Cell cycle G0/G1” value (A2780 cells; LZ90 40) was 46.76 and 45.07. For the same molecule, the “Cell cycle G2/M” value (A2780 cells; LZ90 40) was 35.5 and 29.25 and 33.56, the “Cell cycle S” value (A2780 cells; LZ90 40) was 23.4 and 20.94 and 19.12 and the “Cell cycle G0/G1” value (A2780 cells; LZ90 60) was 32.3 and 44.46. The “Cell cycle G2/M” value (A2780 cells; LZ90 60) was 27.02 and 27.05, the “Cell cycle S” value (A2780 cells; LZ90 60) was 39.91 and 27.43 and the “Relative inhibition (敏感性)” value (PC9 cells) was 0.29. The inhibition at 0.1 µM [1] was roughly 80% and the “T-cell killing of tumor cells, comparison at the same concentration” value [2] was “more effective than BMS202”.
